Like-named read-outs stand apart in the source and are kept apart here.
Legend:
[1] = target: XO activity (oxidase-type xanthine oxidoreductase) (Rattus norvegicus, UniProt P22985); assay: Prolonged inhibition of tissue and plasma XO activity after oral administration (pterin-based assay); conditions: 27 h
Method: The tissue includes liver, kidney, adipose tissue, intestine and vessel.
A test compound suspended in a 0.5% methylcellulose solution was administered to 7 to 9 week-old Sprague-Dawley male rats (Japan Charles River Co.) by oral gavage administration using a feeding needle. The blood was collected from the abdominal vein and tissue was collected at 24 or 27 hours after administration. Plasma sample was prepared by centrifugation.
Tissue XO activity, tissue XOR activity and plasma XO activity were measured by the pterin-based assay which utilizes the reaction that pterin is oxidized by each type of xanthine oxidoreductase to produce fluorescent isoxanthopterin. […] Then the homogenates were centrifuged 12,000 rpm for 15 min at 4° C. When measured XO activity, the supernatant of tissue and plasma were respectively co-incubated with 50 μM pterin solution at 37° C. When measured XOR activity, the supernatant of tissue homogenate was co-incubated with 50 μM pterin and 50 μM methylene blue solution at 37° C. As a control, oxidase-type xanthine oxidoreductase (from buttermilk, manufactured by Calbiochem Novabiochem Corp.) was also incubated with pterin solution in the same manner. XO activity and XOR activity of the samples were determined from fluorescence intensity which normalized by the intensity value of control and protein concentration.
The percentage of XO activity inhibition and XOR activity inhibition were determined by the following expression:
Percentage of XO or XOR activity inhibition (%)=(XO or XOR activity of the control animal−XO or XOR activity of the test compound-administered animal)×100/XO or XOR activity of the control animal.

[2] = Hypouricemic effect (oxonic acid-induced hyperuricemic beagle dogs); assay type: in vivo; conditions: hyperuricemic beagle dog, oral, 10 mg/kg, 8 hours after administration
Method: Potassium oxonate (50 mg/kg) was subcutaneously administrated before and 4 hours after compound administration. After the blood was collected from the cephalic vein at 8 hours after administration, the plasma was separated. The level of uric acid in the plasma sample was measured by LC-MS/MS method and the percentage of hypouricemic effect was determined by the following expression:
Percentage of hypouricemic effect (%)=(Level of uric acid of the control animal−Level of uric acid of the test compound-administered animal)×100/Level of uric acid of the control animal.

[3] = read-out: % inhibition of XO activity (vs. vehicle), Kidney, 1 mg/kg, 27 hours after administration
[4] = read-out: % inhibition of XO activity (vs. vehicle), Kidney, 10 mg/kg, 27 hours after administration
[5] = read-out: % inhibition of XO activity (vs. vehicle), Liver, 1 mg/kg, 27 hours after administration
[6] = read-out: % inhibition of XO activity (vs. vehicle), Liver, 10 mg/kg, 27 hours after administration
[7] = read-out: % inhibition of XO activity (vs. vehicle), Plasma, 1 mg/kg, 27 hours after administration
[8] = read-out: % inhibition of XO activity (vs. vehicle), Plasma, 10 mg/kg, 27 hours after administration

Sequence of XO activity (oxidase-type xanthine oxidoreductase) (P22985 whole entry): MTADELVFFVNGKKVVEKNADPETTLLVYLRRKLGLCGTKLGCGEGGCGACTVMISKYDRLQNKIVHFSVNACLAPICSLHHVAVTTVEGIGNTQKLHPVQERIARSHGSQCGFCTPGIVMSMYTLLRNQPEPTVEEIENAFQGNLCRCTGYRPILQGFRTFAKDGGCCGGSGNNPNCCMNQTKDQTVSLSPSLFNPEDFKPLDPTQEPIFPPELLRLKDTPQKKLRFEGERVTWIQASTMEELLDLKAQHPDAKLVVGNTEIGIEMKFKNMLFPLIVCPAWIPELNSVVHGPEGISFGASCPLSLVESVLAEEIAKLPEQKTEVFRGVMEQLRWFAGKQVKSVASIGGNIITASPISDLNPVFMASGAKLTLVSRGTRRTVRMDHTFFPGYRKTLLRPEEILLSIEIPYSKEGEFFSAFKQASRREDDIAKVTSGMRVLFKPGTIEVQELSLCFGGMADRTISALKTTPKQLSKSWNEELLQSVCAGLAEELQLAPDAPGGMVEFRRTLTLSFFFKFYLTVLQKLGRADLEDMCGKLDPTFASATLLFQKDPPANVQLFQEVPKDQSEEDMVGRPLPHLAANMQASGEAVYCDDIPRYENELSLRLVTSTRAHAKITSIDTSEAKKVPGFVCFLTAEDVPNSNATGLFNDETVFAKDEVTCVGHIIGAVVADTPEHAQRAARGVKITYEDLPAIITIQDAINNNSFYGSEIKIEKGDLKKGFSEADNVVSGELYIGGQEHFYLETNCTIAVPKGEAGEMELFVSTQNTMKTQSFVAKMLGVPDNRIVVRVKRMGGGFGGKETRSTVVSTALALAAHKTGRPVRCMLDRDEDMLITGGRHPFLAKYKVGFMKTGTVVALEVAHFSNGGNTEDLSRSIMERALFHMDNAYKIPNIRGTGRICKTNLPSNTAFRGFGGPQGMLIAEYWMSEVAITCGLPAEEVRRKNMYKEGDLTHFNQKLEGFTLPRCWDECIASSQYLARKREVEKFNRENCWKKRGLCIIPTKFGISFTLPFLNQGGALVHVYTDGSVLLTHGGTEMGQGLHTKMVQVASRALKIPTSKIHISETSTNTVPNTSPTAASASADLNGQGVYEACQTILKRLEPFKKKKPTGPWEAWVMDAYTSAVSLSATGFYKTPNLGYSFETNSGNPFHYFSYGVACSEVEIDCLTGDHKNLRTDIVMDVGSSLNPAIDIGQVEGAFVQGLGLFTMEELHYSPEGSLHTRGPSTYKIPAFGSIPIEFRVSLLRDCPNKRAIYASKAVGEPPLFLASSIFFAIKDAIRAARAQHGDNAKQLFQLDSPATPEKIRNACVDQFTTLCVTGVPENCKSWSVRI

inhibition in vivo at 1 mg/kg [1, 3] [%] | inhibition in vivo at 10 mg/kg [1, 4] [%] | inhibition in vivo at 1 mg/kg [1, 5] [%] | inhibition in vivo at 10 mg/kg [1, 6] [%] | inhibition in vivo at 1 mg/kg [1, 7] [%] | inhibition in vivo at 10 mg/kg [1, 8] [%] | Structure (SMILES) | hypouricemic effect [2]
≥ 60 | ≥ 70 | ≥ 80 | ≥ 80 | ≥ 25 | ≥ 40 | Cc1nc(-c2ccc(OCC(C)C)c(-n3ccnn3)c2)sc1C(=O)O [Compound 17, 4-methyl-2-[4-(2-methylpropoxy)-3-(1H-1,2,3-triazol-1-yl)phenyl]-1,3-thiazole-5-carboxylic acid] | –
– | – | – | – | – | – | Cc1nc(-c2ccc(OCC(C)C)c(-n3cnnn3)c2)sc1C(=O)O [Compound 25, 4-methyl-2-[4-(2-methylpropoxy)-3-(1H-1,2,3,4-tetrazol-1-yl)phenyl]-1,3-thiazole-5-carboxylic acid] | showed a hypouricemic effect
≥ 60 | ≥ 70 | ≥ 80 | ≥ 80 | ≥ 25 | ≥ 40 | Cc1nc(-c2ccc(OCC(C)(C)C)c(-n3cnnn3)c2)sc1C(=O)O [Compound 26, 2-[4-(2,2-dimethylpropoxy)-3-(1H-1,2,3,4-tetrazol-1-yl)phenyl]-4-methyl-1,3-thiazole-5-carboxylic acid] | –

Source: US20170217948A1, “XANTHINE OXIDASE INHIBITOR” (Teijin Pharma Limited, priority 2014, published 2017)
